Test results reported in patent US20250066389A1, “HETEROCYCLIC AMIDES AND METHODS OF USING THE SAME” (Rgenta Therapeutics, Inc., priority 2021, published 2025).

Each compound was assayed on PMS1 (assay: Mini-Gene Reporter Assay—PMS1 (firefly luciferase mini-gene reporter transiently transfected into HEK293 cells)). Conditions: Homo sapiens; at 5 uM; mini-gene firefly luciferase reporter in HEK293 cells; read-out: PMS1 % Effect at 5 uM.
Format: cell-based
Procedure, shortened: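 Luminescence (RLU) read-out of exon inclusion: compound dilutions, tested in duplicate, act on transiently transfected HEK293 cells carrying a firefly luciferase reporter fused downstream of the PMS1 skipped-exon region. Potency derived by Levenberg-Marquardt curve fitting, with percent effect at 5 μM.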

Compound | activation at 5 µM
CCOc1cn2nc(C)cc2cc1C(=O)Nc1cnc(N(C)C[C@H]2CCCN2)nc1 [Compound 575] | < 50%
CCOc1cn2nc(C)cc2cc1C(=O)Nc1cnc(N(C)C[C@@H]2CCCN2)nc1 [Compound 576] | < 50%
CCOc1cn2nc(C)cc2cc1C(=O)Nc1cnc(N2CCOC3(CCNC3)C2)nc1 (stereo not drawn) [Compound 577] | < 50%
CCOc1cn2nc(C)cc2cc1C(=O)Nc1cnc(N2CCCC3(CCNC3)C2)nc1 (stereo not drawn) [Compound 578] | < 50%
CCOc1cn2nc(C)cc2cc1C(=O)Nc1cnc(N2CCC3(CCCN3)CC2)nc1 [Compound 579] | > 75%
CCOc1cn2nc(C)cc2cc1C(=O)Nc1cnc(N(C)CC2CCCN2)nc1 (stereo not drawn) [Compound 581] | < 50%
CCOc1cn2nc(C)cc2cc1C(=O)Nc1cnc(N(C)CCN2CCNCC2)nc1 [Compound 582] | < 50%
CCOc1cn2nc(C)cc2cc1C(=O)Nc1cnc(N(C)CC2CCNC2)nc1 (stereo not drawn) [Compound 583] | < 50%
CCOc1cn2nc(C)cc2cc1C(=O)Nc1cnc(N2CCC3(CC2)CNCCO3)nc1 [Compound 584] | < 50%
CCOc1cn2nc(C)cc2cc1C(=O)Nc1cnc(N2CCOC3(CCNCC3)C2)nc1 [Compound 587] | < 50%
CCOc1cn2nc(C)cc2cc1C(=O)Nc1cnc(NCCC2CCCCN2)nc1 (stereo not drawn) [Compound 588] | < 50%
CCOc1cn2nc(C)cc2cc1C(=O)Nc1cnc(N2C[C@H]3CNC[C@H]3C2)nc1 [Compound 590] | > 75%
CCOc1cn2nc(C)cc2cc1C(=O)Nc1cnc(N2CCCC(NC)C2)nc1 (stereo not drawn) [Compound 591] | < 50%
CCOc1cn2nc(C)cc2cc1C(=O)Nc1cnc(NCCNC)nc1 [Compound 592] | < 50%
CCOc1cn2nc(C)cc2cc1C(=O)Nc1cnc(NC[C@H]2CCCN2)nc1 [Compound 593] | < 50%
CCOc1cn2nc(C)cc2cc1C(=O)Nc1cnc(N2CCNCC2)nc1 [Compound 594] | 50 to 75%
CCOc1cn2nc(C)cc2cc1C(=O)Nc1cnc(N2CC(N)C2)nc1 [Compound 595] | < 50%
CCOc1cn2nc(C)cc2cc1C(=O)Nc1cnc(N2CCN[C@@H](C)C2)nc1 [Compound 596] | 50 to 75%
CCOc1cn2nc(C)cc2cc1C(=O)Nc1cnc(N2CCC(N)CC2)nc1 [Compound 597] | < 50%
CCOc1cn2nc(C)cc2cc1C(=O)Nc1cnc(NCC2CCCNC2)nc1 (stereo not drawn) [Compound 598] | < 50%
CCOc1cn2nc(C)cc2cc1C(=O)Nc1cnc(N(C)CCNC)nc1 [Compound 599] | < 50%
CCOc1cn2nc(C)cc2cc1C(=O)Nc1cnc(N2CCCNCC2)nc1 [Compound 600] | < 50%
CCOc1cn2nc(C)cc2cc1C(=O)Nc1cnc(N2CCCC(CCC3CCCNC3)C2)nc1 (stereo not drawn) [Compound 603] | < 50%
CCOc1cn2nc(C)cc2cc1C(=O)Nc1cnc(N2CCNCC3(CC3)C2)nc1 [Compound 604] | < 50%
CCOc1cn2nc(C)cc2cc1C(=O)Nc1cnc(N2CC3C4CCC(NC4)C3C2)nc1 (stereo not drawn) [Compound 605] | < 50%

Compound | activation at 5 µM
CCOc1cn2nc(C)cc2cc1C(=O)Nc1cnc(N2CCC(C3NCC3(C)C)CC2)nc1 (stereo not drawn) [Compound 606] | < 50%
CCOc1cn2nc(C)cc2cc1C(=O)Nc1cnc(N2CCC(CCN3CCNCC3)CC2)nc1 [Compound 607] | < 50%
CCOc1cn2nc(C)cc2cc1C(=O)Nc1cnc(N2CCNC(CS(C)(=O)=O)C2)nc1 (stereo not drawn) [Compound 608] | < 50%
CCOc1cn2nc(C)cc2cc1C(=O)Nc1cnc(N2CCC(C(O)C3CCNCC3)CC2)nc1 (stereo not drawn) [Compound 609] | < 50%
CCOc1cn2nc(C)cc2cc1C(=O)Nc1cnc(N2CCC(C3CCCNC3)CC2)nc1 (stereo not drawn) [Compound 610] | < 50%
CCOc1cn2nc(C)cc2cc1C(=O)Nc1cnc(N2CCC3CCNCC3C2)nc1 (stereo not drawn) [Compound 611] | < 50%
CCOc1cn2nc(C)cc2cc1C(=O)Nc1cnc(N2CC(NC)C3(CC3)C2)nc1 (stereo not drawn) [Compound 612] | < 50%
CCOc1cn2nc(C)cc2cc1C(=O)Nc1cnc(N2CCOC3(CCCNC3)C2)nc1 (stereo not drawn) [Compound 613] | < 50%
CCOc1cn2nc(C)cc2cc1C(=O)Nc1cnc(N2CCC(CC[C@@H]3CCCN3)CC2)nc1 [Compound 615] | < 50%
CCOc1cn2nc(C)cc2cc1C(=O)Nc1cnc(N2CC[C@@H](C)[C@@H](NC)C2)nc1 [Compound 617] | < 50%
CCOc1cn2nc(C)cc2cc1C(=O)Nc1cnc(N2CCC(COC3CCNC3)CC2)nc1 (stereo not drawn) [Compound 618] | < 50%
CCOc1cn2nc(C)cc2cc1C(=O)Nc1cnc(N2CC[C@@H]3CNC[C@@H]3CC2)nc1 [Compound 619] | < 50%
CCNCC1CCN(c2ncc(NC(=O)c3cc4cc(C)nn4cc3OCC)cn2)CC1 [Compound 623] | < 50%
CCOc1cn2nc(C)cc2cc1C(=O)Nc1cnc(N2CC3(CCNCC3)C2)nc1 [Compound 625] | 50 to 75%
CCOc1cc2nc(C)cn2cc1C(=O)Nc1cnc(N2CCC(N)(CC)CC2)nc1 [Compound 639] | > 75%
CCOc1cc2nc(C)cn2cc1C(=O)Nc1cnc(N2CC(C)NCC2C)nc1 (stereo not drawn) [Compound 644] | 50 to 75%
CCOc1cc2nc(C)cn2cc1C(=O)Nc1cnc(N2C[C@H]3CNC[C@H]3C2)nc1 [Compound 646] | 50 to 75%
CCOc1cc2nc(C)cn2cc1C(=O)Nc1cnc(N2CCC(NC)CC2)nc1 [Compound 648] | < 50%
CCOc1cc2nc(C)cn2cc1C(=O)Nc1cnc(N(C)C2CCNCC2)nc1 [Compound 649] | 50 to 75%
CCOc1cc2nc(C)cn2cc1C(=O)Nc1cnc(N2CCCNCC2)nc1 [Compound 653] | < 50%
CCOc1cc2nc(C)cn2cc1C(=O)Nc1cnc(N2CCNC(C)C2)nc1 (stereo not drawn) [Compound 654] | > 75%
CCOc1cc2nc(C)cn2cc1C(=O)Nc1cnc(NCC2CCNC23CCC3)cn1 (stereo not drawn) [Compound 659] | > 75%
CCOc1cc2nc(C)cn2cc1C(=O)Nc1cnc(N2CC(O)(CNC)C2)cn1 [Compound 662] | > 75%
CCOc1cc2nc(C)cn2cc1C(=O)Nc1cnc(NC2CNC(C)(C)C2)cn1 (stereo not drawn) [Compound 663] | > 75%
CCOc1cc2nc(C)cn2cc1C(=O)Nc1cnc(N2CC(C3CNC3)C2)cn1 [Compound 664] | > 75%

Compound | activation at 5 µM
CCOc1cc2nc(C)cn2cc1C(=O)Nc1cnc(N[C@@H]2CNC[C@@H]2F)cn1 [Compound 666] | 50 to 75%
CCOc1cc2nc(C)cn2cc1C(=O)Nc1cnc(N2CC(N)C(C)(C)C2)cn1 (stereo not drawn) [Compound 667] | > 75%
CCOc1cc2nc(C)cn2cc1C(=O)Nc1cnc(NCCC2CNCC(C)O2)cn1 (stereo not drawn) [Compound 669] | < 50%
CCOc1cc2nc(C)cn2cc1C(=O)Nc1cnc(N2CC[C@@H](C)[C@@H](NC)C2)cn1 [Compound 671] | < 50%
CCOc1cc2nc(C)cn2cc1C(=O)Nc1cnc(N2C[C@@H](F)C[C@H]2CN)cn1 [Compound 672] | 50 to 75%
CCOc1cc2nc(C)cn2cc1C(=O)Nc1cnc(N2CCC3(CNCCO3)C2)cn1 (stereo not drawn) [Compound 673] | < 50%
CCOc1cc2nc(C)cn2cc1C(=O)Nc1cnc(NCC2(F)CCNC2)cn1 (stereo not drawn) [Compound 674] | 50 to 75%
CCOc1cc2nc(C)cn2cc1C(=O)Nc1cnc(N2CCOC3(CCNC3)C2)cn1 (stereo not drawn) [Compound 676] | 50 to 75%
CCOc1cc2nc(C)cn2cc1C(=O)Nc1cnc(N2CC(N)C3(CC3)C2)cn1 (stereo not drawn) [Compound 678] | > 75%
CCOc1cc2nc(C)cn2cc1C(=O)Nc1cnc(NCc2cccc(CNC)c2)cn1 [Compound 679] | < 50%
CCOc1cc2nc(C)cn2cc1C(=O)Nc1cnc(N2CCC3(CC2)CNCCO3)cn1 [Compound 683] | < 50%
CCOc1cc2nc(C)cn2cc1C(=O)Nc1cnc(N2CCC3(CCNCC3)C2)cn1 [Compound 685] | 50 to 75%
CCOc1cc2nc(C)cn2cc1C(=O)Nc1cnc(N2C3CCC2CNC3)cn1 [Compound 686] | > 75%
CCNCC1CCN(c2cnc(NC(=O)c3cn4cc(C)nc4cc3OCC)cn2)CC1 [Compound 687] | > 75%
CCOc1cc2nc(C)cn2cc1C(=O)Nc1cnc(N2CCC(NC)C2)cn1 (stereo not drawn) [Compound 688] | > 75%
CCOc1cc2nc(C)cn2cc1C(=O)Nc1cnc(N2CCCC(NC)C2)cn1 (stereo not drawn) [Compound 690] | 50 to 75%
CCOc1cc2nc(C)cn2cc1C(=O)Nc1cnc(N2CCC(NC)CC2)cn1 [Compound 691] | > 75%
CCOc1cc2nc(C)cn2cc1C(=O)Nc1cnc(N2CCNC[C@H]2C)cn1 [Compound 692] | > 75%
CCOc1cc2nc(C)cn2cc1C(=O)Nc1cnc(N2CCNCC2)cn1 [Compound 693] | > 75%
CCOc1cc2nc(C)cn2cc1C(=O)Nc1cnc(N2CCC(N)C2)cn1 (stereo not drawn) [Compound 694] | > 75%
CCOc1cc2nc(C)cn2cc1C(=O)Nc1cnc(N2CCC(N)CC2)cn1 [Compound 695] | > 75%
CCOc1cc2nc(C)cn2cc1C(=O)Nc1cnc(N[C@H]2CCNC2)cn1 [Compound 696] | 50 to 75%
CCOc1cc2nc(C)cn2cc1C(=O)Nc1cnc(N2CCNCC2C)cn1 (stereo not drawn) [Compound 697] | > 75%
CCOc1cc2nc(C)cn2cc1C(=O)Nc1cnc(N2CCNC(C)C2)cn1 (stereo not drawn) [Compound 698] | > 75%

Same assay, conditions: Homo sapiens; mini-gene firefly luciferase reporter in HEK293 cells

IC50 | Compound
1 to 10 µM | COc1cc2nc(C)cn2cc1C(=O)Nc1ccc(N2CCNCC2C(F)F)cc1F (stereo not drawn) [Compound 627]
< 1 µM | COc1cc2nc(C)cn2cc1C(=O)Nc1ccc(N2C[C@@H]3C[C@H]2CN3)cc1F [Compound 628]
< 1 µM | COc1cc2nc(C)cn2cc1C(=O)Nc1ccc(N2CC[C@@H]3NCC[C@@H]3C2)cc1F [Compound 629]
< 1 µM | COc1cc2nc(C)cn2cc1C(=O)Nc1ccc(N2C[C@H]3CNCC[C@H]3C2)cc1F [Compound 630]
